Data set [1] in a line: (R)-30 levels in serum of keratitis mice. The format is in vivo. To be noted: C57BL/6, mouse, 5 µL of 1 mg/mL (R)-30 per dose (nine doses, every 8 h), keratitis mice after topical ocular dosing. The protocol: 3.15 Bioanalytical sample preparation of keratitis samples for determination of
concentration of ( R)-30 in eye and serum
All PD serum and eye homogenate samples were analyzed via HPLC -MS/MS using an Agilent
1290 Infinity II HPLC system and coupled to an AB Sciex QTrap6500+ mass spectrometer.
First, a calibration curve was prepared by spiking different concentrations of (R)-30 into the
respective matrix (mouse serum (pooled, from CD -1 mice) for plasma samples, isotonic
sodium chloride solution for eye homogenate samples). Caffeine was used as an internal
standard. In addition, quality control samples (QCs) were prepared for (R)-30 with the
respective matrix. The following extraction procedure was used: 7.5 μL of a serum sample
(calibration samples, QCs or PD samples) was extracted with 37.5 μL of methanol containing
12.5 ng/mL of caffeine as internal standard for 5 min at 2,000 r pm on an Eppendorf MixMate®
vortex mixer. Then samples (serum) were spun down at 13,000 rpm for 5 min. Supernatants
were transferred to standard HPLC-glass vials. 50 μL of an eye homogenate sample […]
standard were analyzed using MultiQuant 3.0 software (AB Sciex). […]
for quantification are marked with a ‘Q’ in the table, the other MS/MS pairs for the respective
compound were used for qualification. Peaks of PD samples were quantified using the
calibration curve. The accuracy of the calibration curve was determined using QC s […]

For the next data set, the system named is zebrafish embryos. The experiment in a line: Zebrafish embryo toxicity. The format is in vivo. Particulars: up to 100 µM, up to five days post fertilization. The protocol:
Table S8: Percent (%) inhibition of the metabolic activity of three human cell lines HepG2 (hepatocellular carcinoma cells), HEK293 (human embryonic kidney 293 cells) and A549 (lung carcinoma epithelial cells). Results are means and SD of at least two independent ex periments.
3.10 Evaluation of Zebrafish embryo toxicity
The experiment was performed according to a procedure described in the literature with minor modifications using zebrafish embryos of the AB wild -type line at 1 day post fertilization (dpf). A detailed protocol has been given in our recent publication.[16]
Starting exposure ar 2 dpf. Ten larvae were tested for each condition. Dpf: days post fertilization.
3.11 Tolerability study in male CD1 mice
This in vivo experiment was carried out at the CRO Selvita (Zagreb, Croatia). The study was performed in an AAALAC I- approved Facility. The standard study plan relating to this study was reviewed by the Ethics Committee (CARE- Zagreb) as required by International Laws/Regulations and Croatian Low on Animal Welfare (“The Animal Protection Act”, Official Gazette, NN 135/06 and NN 37/13) and Animal Welfare Officer. Animals were kept in solid […]
bottom cages ([…] S.p A., Italy, Type III polysulphone cage); 425 mm x 266 mm x 180 mm; 3 animals in each cage. The animals were kept on 4 cm thick layer of corn cob grit, […]
(1 picture or pasted object on this page, not shown here)

A short description of data set [2]: Plasma stability, Wistar rat. It is filed as in vitro ADME. Particulars: read-out: Rat Plasma t1/2. The procedure: To determine stability in plasma, the compound (1 µM) was incubated with pooled CD -1 […]
mouse/human/Wistar rat or Göttingen minipig plasma (Neo Biotech, Nanterre, France).
Samples were taken by mixing aliquots with 4 volumes of acetonitrile containing internal […]
standard (125 nM diphenhydramine). The plasma stability of procain, propantheline and diltiazem were determined in parallel to confirm the enzymatic activity. Samples were stored […]
on ice until the end of the incubation and precipitated protein was removed by centrifugation […]
(15 min, 4 °C, 4,000 g, two centrifugation steps). Concentration of the remaining test compound at the different time points was analyzed by HPLC-MS/MS (TSQ Quantum Access MAX, […]
(§1) Thermo Fisher, Dreieich, Germany) and used to determine half-life (t1/2).
(§2) Table S2: Additional in vitro ADMET data for selected dipeptides. n.d.: not determined.
(§3) Kinetic Liver S9 Clint [µL/mg/min] Plasma t1/2 [min] LogD7.4 […]
(§4) pH 7.4 [µM] Mouse Human Mouse Human

Data set [3] can be described thus: Stability in minipig liver microsomes. It is filed as in vitro ADME. Particulars: Göttingen, read-out: Minipig Liver Microsomes t1/2. The protocol: Samples were stored on ice until the end of the incubation and precipitated protein was removed by centrifugation (15 min, 4 °C, 4,000 g). Concentration of the remaining test […]
compound at the different time points was analyzed by HPLC-MS/MS (TSQ Quantum Access […]
MAX, Thermo Fisher, Dreieich, Germany) and used to determine half -life (t1/2) and intrinsic […]
Species profiling was conducted as above using 0.5 mg/mL pooled mouse, rat or minipig liver microsomes (Xenotech, Kansas City, USA) with 2 mM NADPH and 10 mM MgCl2 and testosterone, verapamil and ketoconazole as reference compounds. […]
as §1, §2, §3, §4
A general note: Liver microsomes are a subcellular fraction often used to study metabolism.

The compound `CC(=O)c1ccc(NC(=O)[C@@H](NC(=O)[C@@H](CC(C)C)P(=O)(O)O)C(C)C)cc1` [(R)‐30] gave a concentration at 3 days post infection in data set [1] of less than 500 nM.
On to `CC(=O)c1ccc(NC(=O)[C@@H](NC(=O)C(CC(C)C)P(=O)(O)O)C(C)C)cc1` (stereo partly shown) [compound 30], for which the Zebrafish embryo toxicity entry with zebrafish embryos is reported as “no signs of toxicity”. The half-life at 1 µM in data set [2] is greater than 4 h; in data set [3] it was greater than 2 h.
